“And” between values parts separate entries of the source, which are not always exact repeats. Identical values can stand only once.
Test system: 168753-222-R-J1-PDC complex spheroid viability
Assay: Anticancer human tumor 168753-222-R-J1-PDC patient-derived bladder carcinoma cell line growth inhibition [CLK]
Conditions: for viability, T/C: stronger effect = lower value; active means viability on the fitted dose curve at most 10% of control; inactive means the rest
Summary of the method: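 Patient-derived tumor cells grown as complex spheroids with HUVEC endothelial cells and mesenchymal stem cells, treated with drug combinations. Concentrations descend in half-log steps from near clinical Cmax, or from 10 microM if Cmax unknown.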
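Further: viability measured after seven days of drug exposure.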
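Wherever viability, T/C is given: luminescence signal used as surrogate for viable cell amount; 100% = DMSO vehicle control wells.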

Cn1ncnc1[C@H]1c2n[nH]c(=O)c3cc(F)cc(c23)N[C@@H]1c1ccc(F)cc1 + CNC(=O)c1ccc(Nc2nc(OC3CCCC3)c3c(-c4ccc5nc(C)oc5c4)c[nH]c3n2)c(OC)c1
> 100 nM: IC50 (curve of first compound, second compound 0.0316 µM) | IC50 (curve of first compound, second compound 0.1 µM) | IC50 (curve of first compound, second compound 0.316 µM)
< 0.316 nM: IC50 (curve of first compound, second compound 1 µM) | IC50 (curve of first compound, second compound 3.16 µM) | IC50 (curve of first compound, second compound 10 µM)
inactive: viability, T/C (second compound 0.0316 µM, first compound 0.000316 µM) 95% | viability, T/C (second compound 0.0316 µM, first compound 0.001 µM) 116% | viability, T/C (second compound 0.0316 µM, first compound 0.00316 µM) 110% | viability, T/C (second compound 0.0316 µM, first compound 0.01 µM) 113% | viability, T/C (second compound 0.0316 µM, first compound 0.0316 µM) 104% | viability, T/C (second compound 0.0316 µM, first compound 0.1 µM) 108% | viability, T/C (second compound 0.1 µM, first compound 0.000316 µM) 96.8% | viability, T/C (second compound 0.1 µM, first compound 0.001 µM) 93.6% | viability, T/C (second compound 0.1 µM, first compound 0.00316 µM) 91.7% | viability, T/C (second compound 0.1 µM, first compound 0.01 µM) 103% | viability, T/C (second compound 0.1 µM, first compound 0.0316 µM) 103% | viability, T/C (second compound 0.1 µM, first compound 0.1 µM) 92.6% | viability, T/C (second compound 0.316 µM, first compound 0.000316 µM) 66.3% | viability, T/C (second compound 0.316 µM, first compound 0.001 µM) 72% | viability, T/C (second compound 0.316 µM, first compound 0.00316 µM) 77.2% | viability, T/C (second compound 0.316 µM, first compound 0.01 µM) 85.2% | viability, T/C (second compound 0.316 µM, first compound 0.0316 µM) 82.1% | viability, T/C (second compound 0.316 µM, first compound 0.1 µM) 77.2% | viability, T/C (second compound 1 µM, first compound 0.000316 µM) 33.9% | viability, T/C (second compound 1 µM, first compound 0.001 µM) 32% | viability, T/C (second compound 1 µM, first compound 0.00316 µM) 30.6% | viability, T/C (second compound 1 µM, first compound 0.01 µM) 28% | viability, T/C (second compound 1 µM, first compound 0.0316 µM) 31.9% | viability, T/C (second compound 1 µM, first compound 0.1 µM) 42% | viability, T/C (second compound 3.16 µM, first compound 0.000316 µM) 22.6% | viability, T/C (second compound 3.16 µM, first compound 0.001 µM) 18.6% | viability, T/C (second compound 3.16 µM, first compound 0.00316 µM) 19.6% | viability, T/C (second compound 3.16 µM, first compound 0.01 µM) 18.7% | viability, T/C (second compound 3.16 µM, first compound 0.0316 µM) 19.8% | viability, T/C (second compound 3.16 µM, first compound 0.1 µM) 21.5% | viability, T/C (second compound 10 µM, first compound 0.000316 µM) 15.8% | viability, T/C (second compound 10 µM, first compound 0.001 µM) 17.3% | viability, T/C (second compound 10 µM, first compound 0.00316 µM) 19.3% | viability, T/C (second compound 10 µM, first compound 0.01 µM) 16.8% | viability, T/C (second compound 10 µM, first compound 0.0316 µM) 16.3% | viability, T/C (second compound 10 µM, first compound 0.1 µM) 20.5%

COc1ccc([C@@H](O)c2cc(-c3ncnc4cc(N5CCOCC5)ccc34)c(F)cc2Cl)nn1
258 nM and 2250 nM: IC50 (curve of compound)
inactive: viability, T/C (compound 0.0316 µM) 90% and 106% | viability, T/C (compound 0.1 µM) 95.4% and 97.4% | viability, T/C (compound 0.316 µM) 40.8% and 95.7% | viability, T/C (compound 1 µM) 26.3% and 80.3% | viability, T/C (compound 3.16 µM) 13.1% and 37.1% | viability, T/C (compound 10 µM) 7.58% and 16.6%

From PubChem BioAssay AID2060626 (Molecular Pharmacology Branch, DTP, NCI, 2025)
